Two compounds from patent publication US20050181467A1, “ATP extraction method” (priority 2000, published 2005) can be followed below.

The assay concerns the target luciferase (Photinus pyralis, UniProt P08659). The assay is described as follows: ATP-luciferin-luciferase assay (light intensity, luminometer). The format is biochemical, firefly. The settings on record: for effect on light intensity: diluted concentrations compared with the positively charged extractant, 5; for neutralizing the inhibitory effect(s) of commonly employed extractants on the ATP-luciferin-luciferase light reaction: overall conclusion, SDS at the proper concentrations. As to the method:
ATP-luciferin-luciferase assays were conducted to determine the effect of the following on assay activity: (1) Tween® 20 (2% Tween® 20 in 50 mM tricene buffer, pH 6.75), (2) MgSO4 (0.229 g/L in 50 mM tricene buffer, pH 7.46), (3) SDS (0.268 g/L in 50 mM tricene buffer, pH 7.61) and (4) a combination of MgSO4 and various amounts of Tween®. Each of these substances were assayed alone and in the presence of a commonly used positively charged ATP extractant, i.e., benzalkonium chloride (0.3325 g/L). Many of the assays were conducted in the presence of the following sanitizers: Ster-Bac® (1 oz/4 gal); Ster-Bac® (2.5 ml/L); XY-12 (200 ppm); XY-12 (600 ppm); Simplex Quat (1 oz/gal); Kleer-Mor® (1 oz/2 gal); and Kleer-Mor® (4 oz/2 gal). The MgSO4 and SDS assays were conducted using molar concentrations of MgSO4 and SDS equal to that of the positively charged extractant, as well as using molar concentrations of MgSO4 and SDS diluted as compared to that of the positively charged extractant.
Depending on the substance being tested, sanitizer, neutralizer (i.e., Tween® 20, MgSO4 or SDS), ATP solution, luciferin/luciferase cocktail, extractant and/or benzalkonium chloride (in various combinations) were placed in a cuvette and light intensity was read. Each sanitizer was run in duplicate. A control tube containing buffer and ATP was also run. Light output was measured in a Monolight 3010 luminometer. Each experiment was conducted in total volume of 0.42 ml in the curvette.

Chain of luciferase (P08659 whole entry, species assumed): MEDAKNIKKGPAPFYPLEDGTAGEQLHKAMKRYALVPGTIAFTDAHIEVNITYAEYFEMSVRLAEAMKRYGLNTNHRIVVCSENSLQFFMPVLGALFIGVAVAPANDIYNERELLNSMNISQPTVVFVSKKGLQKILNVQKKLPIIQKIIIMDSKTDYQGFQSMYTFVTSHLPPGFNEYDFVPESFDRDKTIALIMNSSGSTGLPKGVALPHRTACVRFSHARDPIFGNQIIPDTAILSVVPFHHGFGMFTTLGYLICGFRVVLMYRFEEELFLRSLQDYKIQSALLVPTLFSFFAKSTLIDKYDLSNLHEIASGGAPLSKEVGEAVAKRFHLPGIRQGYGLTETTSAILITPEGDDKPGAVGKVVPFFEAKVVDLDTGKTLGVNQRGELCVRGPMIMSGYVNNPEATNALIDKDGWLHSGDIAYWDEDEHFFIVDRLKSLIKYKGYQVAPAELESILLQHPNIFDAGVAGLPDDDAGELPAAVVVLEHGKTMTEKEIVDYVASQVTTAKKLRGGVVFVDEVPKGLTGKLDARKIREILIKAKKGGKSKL

For the compound `O=S(=O)([O-])[O-].[Mg+2]` [MgSO4, magnesium sulfate], the “neutralizing the inhibitory effect(s) of commonly employed extractants on the ATP-luciferin-luciferase light reaction” value is given as “more effective than Tween® 20”. Moreover, where the note is “FIGS. 4A-4C”, the “effect on light intensity” value was “increased light intensity over the undiluted MgSO4”. The “performance as neutralizer compared with SDS (intensity of light)” value (equal concentrations of neutralizer and extractant, with sanitizer, with extractant and alone, FIG. 3) was “performed better than SDS in all assays”. Moreover, the “performance as neutralizer compared with Tween 20 (intensity of light)” value (equal concentrations of neutralizer and positively charged extractant (benzalkonium chloride), various sanitizers, FIGS. 1 and 2) is on record as “performed better than Tween® 20 as a neutralizer for all sanitizers except one”. For the same compound, the “neutralizing the effects of sanitizer” value (extractant, sanitizer and ATP-luciferin-luciferase solution, FIGS. 6A, 6B) is “works at least as well and, in most cases, better than Tween® 20”.

`CCCCCCCCCCCCOS(=O)(=O)[O-].[Na+]` [SDS, sodium dodecyl sulfate]: the “neutralizing the inhibitory effect(s) of commonly employed extractants on the ATP-luciferin-luciferase light reaction” value was “neutralizes the inhibitory effect(s)”. The “neutralizing the inhibitory effects of benzalkonium chloride” value (diluted 1:2 or more compared with the extractant, FIGS. 4A-4C) is on record as “effective in neutralizing the inhibitory effects of benzalkonium chloride”. Also, where the note is “FIGS. 4A-4C”, the “effect on light intensity” value is on record as “did not affect (inhibit) light intensity”. Besides, the “effect on the light reaction” value (equal concentrations of neutralizer and positively charged extractant, FIG. 3) is “not effective and inhibited the light reaction”. The “effect on the light reaction at too high a concentration” value (present at too high a concentration) is recorded as “completely eliminate the light reaction”.
